# Test results reported in patent publication US7049331B2, “1,2,4-thiadiazole derivatives as melanocortin receptor modulators” (Ortho-McNeil Pharmaceutical, Inc., priority 2001, dated 2006).
# Assays:
# [1] = system: Cortical Cells; experiment: Neurite Cell Outgrowth Assay, cortical cells; format: cell-based; conditions: Rattus norvegicus; 50 nM; percent change over the vehicle response; NA = no change/not active
# Source text: (§1) Dissociated hippocampal and cortical cell cultures were established from embryonic day 18 rat fetuses as described by Mattson, M. P., Barger, S. W., Begley, J, and Mark, R. J., Methods Cell Biol., 1994, 46:[…]. Briefly, fetuses were removed via cesarean section from pregnant moms (Sprague-Dawley) and anesthetized with halothane according to the AVMA Panel on Euthanasia. Pups were decapitated and the brains were removed and placed in HEPES-buffered Hank's Balanced Salt solution (HBSS; Gibco). The hippocampi and cortices were dissected out and pooled according to tissue-type. Tissue was trypsinized for 15 min (1 mg/ml trypsin-HBSS; Worthington), rinsed with fresh HBSS, incubated in trypsin inhibitor (1 mg/ml; Sigma) for 5 min, rinsed again with fresh HBSS and then triturated in 1 ml fresh HBSS with a fire-polished glass pipette. Dissociated cells were seeded at 30,000 cells/well onto poly-D-lysine coated 96-well plates (Collaborative BioScience). Each well contained 100 μl of Eagle's Minimal Essential Media (MEM; Gibco) supplemented with 26 mM NaHCO3 (Sigma), 56 mM glucose (Sigma), 15 mM KCl (Sigma), 1 mM sodium pyruvate (Sigma), 1.1 mM L-glutamine (Sigma), 10% (v/v) heat-inactivated fetal bovine serum (Hyclone), and 0.001% gentamicin sulfate (Sigma) (pH 7.4). Cells were allowed to attach for 24 h in a humidified 37° C. 5% CO2 incubator before experimental treatment. The culture media was aspirated and exchanged with fresh media every 3 days.
# (§2) Twenty-four hours after plating, cultures were treated with vehicle (PBS+0.1% BSA), alpha-melanocyte stimulating hormone (α-MSH) or test compound (diluted in DPBS). Each treatment condition was run in quadruplicate. On the third day in culture, the media was aspirated off and replaced with fresh media and test compound. At one week in culture, the cells were fixed with 10% phosphate-buffered formalin for 15 min, then rinsed with DPBS (Sigma) and placed in blocking serum for 30 min (horse serum; 1:50 dilution in DPBS; Vector Labs). The cultures were rinsed again with DPBS and then incubated in primary antibody for 2 hr (microtubule-associated protein-2 (MAP-2) is a selective marker for dendritic processes; anti-mouse monoclonal (Chemicon); 1:1000 dilution of MAP-2 in antibody diluent (Zymed)). Negative control wells were incubated in antibody diluent alone. Background signal was determined by blank wells (cell-free) incubated with or without antibody. Cultures were rinsed again with DPBS and then placed in fluorescein for 1 hr (FITC; anti-mouse IgG; rat adsorbed; 1:50 dilution in DPBS; Vector Labs). Cultures were rinsed a final time with DPBS and the plates were then read on a Cytofluor 4000 fluorescence plate reader. Neurite outgrowth was expressed as percent change from control (vehicle).
# (§3) The data are expressed as percent change over the vehicle response. All compounds were screened at 50 nM. The abbreviation NA indicates no change/not active; the abbreviation ND indicates a compound not tested/response not determined.
# [2] = biological target: T1, melanocortin MC-4 receptor (Homo sapiens, UniProt P32245); experiment: Melanocortin MC-4 Receptor Binding Assay (SPA)
# T1 construct: purchased Receptor Biology Inc
# T1 sequence (P32245 whole entry): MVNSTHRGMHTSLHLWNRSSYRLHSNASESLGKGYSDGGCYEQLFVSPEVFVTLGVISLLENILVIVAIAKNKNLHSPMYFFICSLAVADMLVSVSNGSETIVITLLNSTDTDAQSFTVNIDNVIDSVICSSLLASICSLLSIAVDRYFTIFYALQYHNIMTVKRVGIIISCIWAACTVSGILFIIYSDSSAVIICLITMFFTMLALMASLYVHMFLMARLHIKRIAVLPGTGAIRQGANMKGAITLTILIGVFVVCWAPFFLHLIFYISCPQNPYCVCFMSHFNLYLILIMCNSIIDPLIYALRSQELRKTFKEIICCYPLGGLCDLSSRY
# Protocol: Melanocortin MC-4 Receptor Binding Assay Melanocortin [MC-4]-membrane [purchased from Receptor Biology Inc] was coupled to wheat germ agglutinin coated polyvinyl toluene-Scintillation Proximity Assay beads [purchased from Amersham Pharmacia Inc.] for 30 min at 25° C. Into each well of a 96-well Opti plate [purchased from Packard, Calif.], 2.5 μg of membrane and 0.25 mg of beads were mixed in a volume of 100 μL media. […] Test compounds (1.5 μL) at 1 mM in 30% DMSO-50 mM HEPES, pH 7.4 buffer was added to separate wells on the plate. Radioactive ligand ^125I-NDP-melanocyte stimulating hormone [NEN, 2000Ci/mmol] was added to each well (48.5 μL per well, 40 pM final concentration). The plate was then sealed and let stand for 16 hr at 25° C. NDP-Melanocyte stimulating hormone peptide and α-melanocyte stimulating hormone peptide [purchased from Palomar Research Inc, 1 μM] were used as reference inhibitor compounds to define non-specific binding (N). Total binding (T) was defined using 30% DMSO-50 mM HEPES, pH 7.4 buffer. Bound radioactivity for each well (Y), measured at counts per minute (cpm) was measured in a TopCount [Packard, Calif.]. Percent inhibition was calculated as: […] The procedures described above for the melanocortin MC-4 receptor were repeated for the melanocortin MC-3 receptor. Following the procedures described, representative compounds of the present invention were tested for binding in the MC-4 and/or MC-3 assay, as listed in Table 4.
# [3] = system: Hippocampal Cells; experiment: Neurite Cell Outgrowth Assay, hippocampal cells; format: cell-based; conditions: Rattus norvegicus; 50 nM; percent change over the vehicle response; NA = no change/not active
# Source text: as §1, §2, §3
structure (smiles),measurement,setting,value
c1ccc(Nc2nc(-c3ccccc3)[n+](-c3ccccc3)s2)cc1 [Compound 22],activation at 0.05 µM,[1],30%
same,IC50,[2],124 nM
COc1ccc(Nc2nc(-c3ccccc3)[n+](-c3ccccc3)s2)cc1 [Compound 23],activation at 0.05 µM,[1],20%
same,activation at 0.05 µM,[3],10%
same,IC50,[2],124 nM
COc1ccccc1Nc1nc(-c2ccccc2)[n+](-c2ccccc2)s1 [Compound 24],activation at 0.05 µM,[1],16%
same,activation at 0.05 µM,[3],10%
same,IC50,[2],76 nM
Cc1ccc(Nc2nc(-c3ccccc3)[n+](-c3ccccc3)s2)cc1 [Compound 25],activation at 0.05 µM,[1],23%
same,IC50,[2],57 nM
COc1ccccc1-[n+]1sc(Nc2ccccc2)nc1-c1ccccc1 [Compound 28],activation at 0.05 µM,[1],25%
same,IC50,[2],68 nM
COc1ccccc1Nc1nc(-c2ccccc2)[n+](-c2ccccc2OC)s1 [Compound 30],IC50,[2],103 nM
COc1ccccc1-[n+]1sc(Nc2ccc(Cl)cc2)nc1-c1ccccc1 [Compound 33],activation at 0.05 µM,[1],21%
same,IC50,[2],91 nM
COc1ccc(-[n+]2sc(Nc3ccccc3)nc2-c2ccccc2)cc1 [Compound 35],activation at 0.05 µM,[1],28%
same,IC50,[2],100 nM
COc1ccc(Nc2nc(-c3ccccc3)[n+](-c3ccc(OC)cc3)s2)cc1 [Compound 36],activation at 0.05 µM,[1],16%
same,IC50,[2],79 nM
COc1ccc(-[n+]2sc(Nc3ccccc3OC)nc2-c2ccccc2)cc1 [Compound 37],activation at 0.05 µM,[1],26%
same,IC50,[2],72 nM
COc1ccc(-[n+]2sc(Nc3ccc(C)cc3)nc2-c2ccccc2)cc1 [Compound 38],IC50,[2],159 nM
COc1ccc(-[n+]2sc(Nc3ccccc3C)nc2-c2ccccc2)cc1 [Compound 39],IC50,[2],146 nM
COc1ccc(-[n+]2sc(Nc3ccc(Cl)cc3)nc2-c2ccccc2)cc1 [Compound 40],activation at 0.05 µM,[3],26%
same,IC50,[2],133 nM
COc1ccc(-[n+]2sc(Nc3ccccc3Cl)nc2-c2ccccc2)cc1 [Compound 41],activation at 0.05 µM,[1],5%
same,activation at 0.05 µM,[3],36%
same,IC50,[2],483 nM
Clc1ccccc1-[n+]1sc(Nc2ccccc2)nc1-c1ccccc1 [Compound 42],activation at 0.05 µM,[3],26%
same,IC50,[2],482 nM
COc1ccc(Nc2nc(-c3ccccc3)[n+](-c3ccccc3Cl)s2)cc1 [Compound 43],activation at 0.05 µM,[1],37%
same,activation at 0.05 µM,[3],30%
same,IC50,[2],237 nM
COc1ccccc1Nc1nc(-c2ccccc2)[n+](-c2ccccc2Cl)s1 [Compound 44],activation at 0.05 µM,[1],19%
same,activation at 0.05 µM,[3],43%
same,IC50,[2],89 nM
Cc1ccc(Nc2nc(-c3ccccc3)[n+](-c3ccccc3Cl)s2)cc1 [Compound 45],activation at 0.05 µM,[1],25%
same,activation at 0.05 µM,[3],46%
same,IC50,[2],246 nM
Cc1ccccc1Nc1nc(-c2ccccc2)[n+](-c2ccccc2Cl)s1 [Compound 46],activation at 0.05 µM,[1],19%
same,activation at 0.05 µM,[3],40%
same,IC50,[2],368 nM
Clc1ccc(Nc2nc(-c3ccccc3)[n+](-c3ccccc3Cl)s2)cc1 [Compound 47],activation at 0.05 µM,[1],13%
same,activation at 0.05 µM,[3],20%
same,IC50,[2],874 nM
Clc1ccccc1Nc1nc(-c2ccccc2)[n+](-c2ccccc2Cl)s1 [Compound 48],activation at 0.05 µM,[1],19%
same,IC50,[2],444 nM
COc1ccc(CNc2nc(-c3ccccc3)[n+](-c3ccccc3)s2)cc1 [Compound 51],activation at 0.05 µM,[1],28%
same,activation at 0.05 µM,[3],74%
same,IC50,[2],1000 nM
COc1ccccc1CNc1nc(-c2ccccc2)[n+](-c2ccccc2)s1 [Compound 52],activation at 0.05 µM,[3],65%
same,IC50,[2],1000 nM
Cc1ccc(CNc2nc(-c3ccccc3)[n+](-c3ccccc3)s2)cc1 [Compound 53],activation at 0.05 µM,[3],67%
same,IC50,[2],1000 nM
Cc1ccccc1CNc1nc(-c2ccccc2)[n+](-c2ccccc2)s1 [Compound 54],activation at 0.05 µM,[3],45%
same,IC50,[2],800 nM
Clc1ccc(CNc2nc(-c3ccccc3)[n+](-c3ccccc3)s2)cc1 [Compound 55],activation at 0.05 µM,[3],19%
same,IC50,[2],800 nM
Clc1ccccc1CNc1nc(-c2ccccc2)[n+](-c2ccccc2)s1 [Compound 56],activation at 0.05 µM,[3],33%
same,IC50,[2],3000 nM
COc1ccc(-c2nc(Nc3ccccc3)s[n+]2-c2ccc(OC)cc2)cc1 [Compound 57],activation at 0.05 µM,[3],9%
same,IC50 MC-4 (nM) (SPA),[2],inactive
COc1ccc(Nc2nc(-c3ccc(OC)cc3)[n+](-c3ccc(OC)cc3)s2)cc1 [Compound 58],activation at 0.05 µM,[1],10%
same,activation at 0.05 µM,[3],72%
same,IC50 MC-4 (nM) (SPA),[2],inactive
COc1ccc(-c2nc(Nc3ccccc3OC)s[n+]2-c2ccc(OC)cc2)cc1 [Compound 59],activation at 0.05 µM,[1],21%
same,activation at 0.05 µM,[3],61%
same,IC50 MC-4 (nM) (SPA),[2],inactive
COc1ccc(-c2nc(Nc3ccc(C)cc3)s[n+]2-c2ccc(OC)cc2)cc1 [Compound 60],activation at 0.05 µM,[1],14%
same,activation at 0.05 µM,[3],66%
same,IC50 MC-4 (nM) (SPA),[2],inactive
COc1ccc(-c2nc(Nc3ccccc3C)s[n+]2-c2ccc(OC)cc2)cc1 [Compound 61],activation at 0.05 µM,[1],17%
same,activation at 0.05 µM,[3],66%
same,IC50 MC-4 (nM) (SPA),[2],inactive
COc1ccc(-c2nc(Nc3ccc(Cl)cc3)s[n+]2-c2ccc(OC)cc2)cc1 [Compound 62],activation at 0.05 µM,[1],13%
same,activation at 0.05 µM,[3],13%
same,IC50 MC-4 (nM) (SPA),[2],inactive
COc1ccc(-c2nc(Nc3ccccc3Cl)s[n+]2-c2ccc(OC)cc2)cc1 [Compound 63],activation at 0.05 µM,[1],17%
same,activation at 0.05 µM,[3],20%
same,IC50,[2],1000 nM
COc1ccc(-c2nc(Nc3cccnc3)s[n+]2-c2ccc(OC)cc2)cc1 [Compound 64],activation at 0.05 µM,[1],12%
same,activation at 0.05 µM,[3],22%
same,IC50,[2],1200 nM
COc1ccccc1-[n+]1sc(Nc2ccccc2)nc1-c1ccc(C)cc1 [Compound 65],IC50,[2],114 nM
COc1ccc(Nc2nc(-c3ccc(C)cc3)[n+](-c3ccccc3OC)s2)cc1 [Compound 66],IC50,[2],120 nM
COc1ccccc1-[n+]1sc(Nc2ccc(C)cc2)nc1-c1ccc(C)cc1 [Compound 68],IC50,[2],110 nM
COc1ccccc1-[n+]1sc(Nc2ccccc2C)nc1-c1ccc(C)cc1 [Compound 69],IC50,[2],139 nM
COc1ccccc1-[n+]1sc(Nc2ccccc2Cl)nc1-c1ccc(C)cc1 [Compound 71],IC50,[2],234 nM
COc1ccccc1-[n+]1sc(Nc2cccnc2)nc1-c1ccc(C)cc1 [Compound 72],IC50,[2],155 nM
COc1ccccc1-[n+]1sc(Nc2cccnc2)nc1-c1ccccc1 [Compound 73],IC50,[2],725 nM
COc1ccc(Nc2nc(-c3ccccc3OC)[n+](-c3ccccc3OC)s2)cc1 [Compound 75],IC50,[2],103 nM
COc1ccccc1-c1nc(Nc2ccc(C)cc2)s[n+]1-c1ccccc1OC [Compound 77],IC50,[2],4.4 nM
COc1ccccc1-c1nc(Nc2ccccc2C)s[n+]1-c1ccccc1OC [Compound 78],IC50,[2],99 nM
COc1ccccc1-c1nc(Nc2ccc(Cl)cc2)s[n+]1-c1ccccc1OC [Compound 79],IC50,[2],216 nM
COc1ccccc1-c1nc(Nc2cccnc2)s[n+]1-c1ccccc1OC [Compound 81],IC50,[2],672 nM
